Results taken from patent publication US20130029973A1, “TETRAHYDROBENZOTHIOPHENE COMPOUND” (ASTELLAS PHARMA INC., priority 2010, published 2013).

Assays:
[1] = system: orally 32P phosphate loaded rats; test: Blood radioactivity increase inhibiting action in orally 32P phosphate loaded rats (phosphate absorption inhibitory action); type: in vivo; conditions: Rattus norvegicus, 0.5 h; 3 mg/kg oral, male Wistar rats; from serum radioactivity AUC0-30min vs control group; read-out: Phosphate absorption inhibitory rate (%)
Experimental: Blood Radioactivity Increase Inhibiting Action in Orally ^32P Phosphate Loaded Rats (Phosphate Absorption Inhibitory Action)
Male Wistar rats (6 to 7 weeks old) were fasted for 24 hours and used as experimental animals. The compound was dissolved or suspended with a solvent, and was used at a concentration of 0.6 mg/mL. The compound-administered animals were forcibly orally administered with the compound at a dose of 3 mg/kg. Control-group animals were administered a solvent containing no compound at a dose of 5 mL/kg. After 5 minutes from administration of the compound or from administration of the solvent, a ^32P-containing phosphate solution (8.3 mM NaH2PO4) was orally administered thereto at a dose of 7.2 mL/kg. After 15 minutes and 30 minutes, the blood was taken from the orbital venous plexus and the serum was collected. Radioactivity in 0.1 mL of the serum was measured by a liquid scintillation counter. AUC0-30min calculated from the measured counts was considered as a phosphate absorption amount. The phosphate absorption inhibitory rate was determined from the AUC0-30min value according to the following equation.
Phosphate absorption inhibitory rate (%)=(1−Phosphate absorption count of compound-administered group/Phosphate absorption count of control group)×100
As a result, it was confirmed that several compounds of the formula (I) have an intestinal phosphate absorption inhibitory action. With the several compounds of the formula (I), the phosphate absorption inhibitory rates at a pharmacological evaluation dose of 3 mg/kg are shown in Table 2.

rat NPT-IIb = biological target: T1, rat NPT-IIb (Rattus norvegicus, UniProt Q9JJ09); test: 33P phosphate uptake inhibiting action of rat NPT-IIb expressing cell; type: cell-based; conditions: HEK293; evaluation concentration 1 μM; 33P uptake in rat NPT-IIb stably expressing 293 cells; read-out: Rat NPT-IIb inhibitory rate (%)
T1 construct: rat NPT-IIb ORF was cloned into p3×FLAG-CMV-10; 3xFLAG (N); expressed in transfected cells
T1 sequence (Q9JJ09 1-695): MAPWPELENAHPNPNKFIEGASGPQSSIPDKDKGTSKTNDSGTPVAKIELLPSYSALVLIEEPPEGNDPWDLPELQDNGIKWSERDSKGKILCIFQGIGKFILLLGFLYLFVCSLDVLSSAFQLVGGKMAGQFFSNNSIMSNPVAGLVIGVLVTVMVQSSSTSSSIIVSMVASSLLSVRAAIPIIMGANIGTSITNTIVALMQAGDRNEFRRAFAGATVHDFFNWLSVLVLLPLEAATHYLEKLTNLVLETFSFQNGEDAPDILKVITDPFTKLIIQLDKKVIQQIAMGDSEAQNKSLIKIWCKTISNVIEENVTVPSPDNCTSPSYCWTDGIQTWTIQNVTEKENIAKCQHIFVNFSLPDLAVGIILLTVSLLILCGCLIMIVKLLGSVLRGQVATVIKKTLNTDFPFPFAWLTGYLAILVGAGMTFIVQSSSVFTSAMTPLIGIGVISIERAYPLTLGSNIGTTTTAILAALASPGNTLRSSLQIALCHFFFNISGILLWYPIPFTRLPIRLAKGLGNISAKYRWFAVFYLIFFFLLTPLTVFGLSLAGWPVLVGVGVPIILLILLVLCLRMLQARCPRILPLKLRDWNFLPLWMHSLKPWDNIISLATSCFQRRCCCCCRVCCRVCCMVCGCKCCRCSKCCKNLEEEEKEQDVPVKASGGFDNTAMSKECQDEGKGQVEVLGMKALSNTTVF
Text: Test Example 1: ^33P Phosphate Uptake Inhibiting Action of Rat NPT-IIb Expressing Cell
Preparation of Rat NPT-IIb Expressing Cell
Using rat small intestine cDNA library as a template, rat NPT-IIb ORF was cloned into p3×FLAG-CMV-10 by PCR according to a standard method. Then, the cloned rat NPT-IIb expressing plasmid was transfected into 293 cells, and G418 was used to obtain a rat NPT-11b-stably expressing cell line.
Evaluation System on Inhibition of Phosphate Uptake into Rat NPT-IIb Expressing Cell
The rat NPT-Hb expressing cells were seeded into a 96-well plate and incubated overnight. The medium was taken out and washed with buffer A (137 mM N-methyl-D-glucamine, 5.4 mM KCl, 2.8 mM CaCl2, 1.2 mM MgCl2, 10 mM HEPES (adjusted to pH 7.4 with HCl)), and then buffer B (137 mM NaCl, 5.4 mM KCl, 2.8 mM CaCl2, 1.2 mM MgCl2, 0.1 mM KH2PO4, 10 mM HEPES (adjusted to pH 7.4 with KOH)) was added thereto. Then, a compound having 10-fold higher concentration relative to the evaluation concentration was prepared by dilution with the buffer B and added thereto, followed by incubation in CO2 incubator. Buffer B supplemented 50 μCi/mL ^33P was added thereto, followed by further incubation in a CO2 incubator. After the reaction, the buffer was taken out and the cells were washed with buffer C (137 mM NaCl, 10 mM Tris/HCl pH 7.2). Then, Microscint-20 was added thereto and ^33P uptake was measured by using TopCount. The inhibitory rate was determined according to the following equation.
Inhibitory rate (%)=(1−(^33P uptake of drug-treated well)/(^33P uptake of DMSO-added well))×100
For several compounds of the formula (I), rat NPT-11b inhibitory activity at a pharmacological evaluation concentration of 1 μM is shown in Table 1. Here, Ex represents Example No. as denoted below (this shall apply hereinafter).

Row | melting point [°C] | inhibition at 1 µM (rat NPT-IIb) [%] | Structure (SMILES) | inhibition in vivo at 3 mg/kg [1] [%]
1 | 262.8 | 83 | CCN([C@H]1CC[C@H](C(=O)O)CC1)S(=O)(=O)c1cccc(C(=O)Nc2sc3c(c2C(=O)Nc2ccc(CCc4ccc(C(=O)O)cc4)cc2)CCCC3)c1 [Example 2, 4-{2-[4-({[2-({3-[(trans-4-carboxycyclohexyl)(ethyl)sulfamoyl]benzoyl}amino)-4,5,6,7-tetrahydro-1-benzothiophen-3-yl]carbonyl}amino)phenyl]ethyl}benzoic acid] | ≥ 60
2 | – | 82 | O=C(O)c1ccc(CCc2ccc(NC(=O)c3c(NC(=O)c4cccc(S(=O)(=O)N(C5CC5)[C@H]5CC[C@H](C(=O)O)CC5)c4)sc4c3CCCC4)cc2)cc1 [Example 4, 4-{2-[4-({[2-({3-[(trans-4-carboxycyclohexyl)(cyclopropyl)sulfamoyl]benzoyl}amino)-4,5,6,7-tetrahydro-1-benzothiophen-3-yl]carbonyl}amino)phenyl]ethyl}benzoic acid] | ≥ 60
3 | – | 87 | O=C(O)c1ccc(CCc2ccc(NC(=O)c3c(NC(=O)c4cccc(S(=O)(=O)N(C5CC5)[C@H]5CC[C@@H](C(=O)O)CC5)c4)sc4c3CCCC4)cc2)cc1 [Example 5, 4-{2-[4-({[2-({3-[(cis-4-carboxycyclohexyl)(cyclopropyl)sulfamoyl]benzoyl}amino)-4,5,6,7-tetrahydro-1-benzothiophen-3-yl]carbonyl}amino)phenyl]ethyl}benzoic acid] | –
4 | 186.8 | – | CCOC(=O)CN(C1CC1)S(=O)(=O)c1cccc(C(=O)Nc2sc3c(c2C(=O)Nc2ccc(CCc4ccc(C(=O)OC)cc4)cc2)CCCC3)c1 [Example 6, methyl 4-{2-[4-({[2-({3-[cyclopropyl(2-ethoxy-2-oxoethyl)sulfamoyl]benzoyl}amino)-4,5,6,7-tetrahydro-1-benzothiophen-3-yl]carbonyl}amino)phenyl]ethyl}benzoate] | –
5 | 230.3 | 42 | CN(CCC(=O)O)S(=O)(=O)c1cccc(C(=O)Nc2sc3c(c2C(=O)Nc2ccc(CCc4ccc(C(=O)O)cc4)cc2)CCCC3)c1 [Example 10, 4-{2-[4-({[2-({3-[(2-carboxyethyl)(methyl)sulfamoyl]benzoyl}amino)-4,5,6,7-tetrahydro-1-benzothiophen-3-yl]carbonyl}amino)phenyl]ethyl}benzoic acid] | –
6 | 250.8 | 76 | O=C(O)CCCN(C1CC1)S(=O)(=O)c1cccc(C(=O)Nc2sc3c(c2C(=O)Nc2ccc(CCc4ccc(C(=O)O)cc4)cc2)CCCC3)c1 [Example 12, 4-{2-[4-({[2-({3-[(3-carboxypropyl)(cyclopropyl)sulfamoyl]benzoyl}amino)-4,5,6,7-tetrahydro-1-benzothiophen-3-yl]carbonyl}amino)phenyl]ethyl}benzoic acid] | ≥ 60
7 | 254.7 | 71 | CCN(C1(C(=O)O)CC1)S(=O)(=O)c1cccc(C(=O)Nc2sc3c(c2C(=O)Nc2ccc(CCc4ccc(C(=O)O)cc4)cc2)CCCC3)c1 [Example 14, 4-{2-[4-({[2-({3-[(1-carboxycyclopropyl)(ethyl)sulfamoyl]benzoyl}amino)-4,5,6,7-tetrahydro-1-benzothiophen-3-yl]carbonyl}amino)phenyl]ethyl}benzoic acid] | 47
8 | 261.4 | 75 | CC(C)N(C1(C(=O)O)CC1)S(=O)(=O)c1cccc(C(=O)Nc2sc3c(c2C(=O)Nc2ccc(CCc4ccc(C(=O)O)cc4)cc2)CCCC3)c1 [Example 17, 4-{2-[4-({[2-({3-[(1-carboxycyclopropyl)(isopropyl)sulfamoyl]benzoyl}amino)-4,5,6,7-tetrahydro-1-benzothiophen-3-yl]carbonyl}amino)phenyl]ethyl}benzoic acid] | –
9 | 159.4 | 85 | CCN(c1ccc(C(=O)O)cc1)S(=O)(=O)c1cccc(C(=O)Nc2sc3c(c2C(=O)Nc2ccc(CCc4ccc(C(=O)O)cc4)cc2)CCCC3)c1 [Example 21] | –
10 | – | 52 | C[C@@]1(C(=O)O)CCCN1S(=O)(=O)c1cccc(C(=O)Nc2sc3c(c2C(=O)Nc2ccc(CCc4ccc(C(=O)O)cc4)cc2)CCCC3)c1 [Example 25, 1-[(3-{[3-({4-[2-(4-carboxyphenyl)ethyl]phenyl}carbamoyl)-4,5,6,7-tetrahydro-1-benzothiophen-2-yl]carbamoyl}phenyl)sulfonyl]-2-methylproline] | –
11 | 241.4 | 58 | CC(=O)N1CCN(S(=O)(=O)c2cccc(C(=O)Nc3sc4c(c3C(=O)Nc3ccc(CCc5ccc(C(=O)O)cc5)cc3)CCCC4)c2)CC1 [Example 27, 4-{2-[4-({[2-({3-[(4-acetylpiperazin-1-yl)sulfonyl]benzoyl}amino)-4,5,6,7-tetrahydro-1-benzothiophen-3-yl]carbonyl}amino)phenyl]ethyl}benzoic acid] | –
12 | – | 51 | CN(CC(O)CO)S(=O)(=O)c1cccc(C(=O)Nc2sc3c(c2C(=O)Nc2ccc(CCc4ccc(C(=O)O)cc4)cc2)CCCC3)c1 (centres unmarked) [Example 29, 4-{2-[4-({[2-({3-[(2,3-dihydroxypropyl)(methyl)sulfamoyl]benzoyl}amino)-4,5,6,7-tetrahydro-1-benzothiophen-3-yl]carbonyl}amino)phenyl]ethyl}benzoic acid] | –
13 | – | 65 | CC(C)N(Cc1cccc(C(=O)O)c1)S(=O)(=O)c1cccc(C(=O)Nc2sc3c(c2C(=O)Nc2ccc(CCc4ccc(C(=O)O)cc4)cc2)CCCC3)c1 [Example 58] | ≥ 60
14 | – | 83 | CCOC(=O)C1(N(CC)S(=O)(=O)c2cccc(C(=O)Nc3sc4c(c3C(=O)Nc3ccc(CCc5ccc(C(=O)O)cc5)cc3)CCCC4)c2)CC1 [Example 70] | –
15 | – | 87 | CCCN([C@H]1CC[C@H](C(=O)O)CC1)S(=O)(=O)c1cccc(C(=O)Nc2sc3c(c2C(=O)Nc2ccc(CCCc4ccc(C(=O)O)cc4)cc2)CCCC3)c1 [Example 102] | ≥ 60
16 | – | 52 | CC(=O)N1CCN(S(=O)(=O)c2cccc(C(=O)Nc3sc4c(c3C(=O)Nc3ccc(CCCc5ccc(C(=O)O)cc5)cc3)CCCC4)c2)CC1 [Example 109] | –
